Data reported in patent US20260130847A1, “INGESTIBLE IN VIVO-ASSEMBLING DRUG RELEASE FORMULATIONS AND METHODS” (Massachusetts Institute of Technology, priority 2022, published 2026).
One block for each compound: values may come before it.

Legend:
lactase = molecular target: T1, lactase (Aspergillus oryzae, UniProt Q2UCU3); assay: Lactase activity after dithiol molecule treatment (ONPG); type: biochemical; conditions: 2.5, 5, or 10 mM, 37° C., 20 min
T1 construct: purchased MilliporeSigma G5160
T1 sequence (Q2UCU3 19-1005): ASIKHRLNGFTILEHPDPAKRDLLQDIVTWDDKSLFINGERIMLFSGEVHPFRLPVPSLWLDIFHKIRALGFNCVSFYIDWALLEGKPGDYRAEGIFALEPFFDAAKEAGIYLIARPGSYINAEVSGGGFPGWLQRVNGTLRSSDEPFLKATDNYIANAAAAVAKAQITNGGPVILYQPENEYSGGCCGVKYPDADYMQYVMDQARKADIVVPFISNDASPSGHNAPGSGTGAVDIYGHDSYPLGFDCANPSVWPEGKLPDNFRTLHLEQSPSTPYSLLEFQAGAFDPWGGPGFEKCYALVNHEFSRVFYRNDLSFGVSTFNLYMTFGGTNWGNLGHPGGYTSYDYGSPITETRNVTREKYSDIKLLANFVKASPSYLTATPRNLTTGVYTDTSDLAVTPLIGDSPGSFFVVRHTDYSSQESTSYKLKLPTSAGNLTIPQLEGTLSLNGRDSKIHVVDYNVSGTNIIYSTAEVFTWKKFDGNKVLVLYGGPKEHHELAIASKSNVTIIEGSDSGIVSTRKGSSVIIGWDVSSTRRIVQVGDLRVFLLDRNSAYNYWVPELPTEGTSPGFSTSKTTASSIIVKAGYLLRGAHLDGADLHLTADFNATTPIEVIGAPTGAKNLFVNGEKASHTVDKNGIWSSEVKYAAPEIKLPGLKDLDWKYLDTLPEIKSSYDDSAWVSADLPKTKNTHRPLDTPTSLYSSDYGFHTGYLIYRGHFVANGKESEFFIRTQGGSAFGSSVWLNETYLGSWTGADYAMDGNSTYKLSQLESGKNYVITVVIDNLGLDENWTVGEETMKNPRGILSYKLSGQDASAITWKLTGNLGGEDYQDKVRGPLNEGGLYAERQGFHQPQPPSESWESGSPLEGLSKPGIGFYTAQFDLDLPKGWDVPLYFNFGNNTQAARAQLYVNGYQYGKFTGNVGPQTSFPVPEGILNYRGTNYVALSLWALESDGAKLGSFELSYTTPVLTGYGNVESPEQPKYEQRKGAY
Protocol: Lactase (18 μg, 60 μL) was added to DMSA or PEG-dithiol to a final DMSA/PEG-dithiol concentration of 2.5, 5, or 10 mM. Treatments were incubated at 37° C. for 20 min. Lactase activity was assayed by adding 60 μL of 5 mM ONPG and incubation for 1 min at room temperature. After, 300 μL of 1 M Na2CO3 was added to stop the reaction, and the absorbance of the solution was read at λ=420 nm.

[1] = Encapsulated lumefantrine pharmacokinetics; type: in vivo; conditions: pigs, 960 mg lumefantrine
Protocol: All animal studies were performed only after MIT CAC review and approval and under veterinarian supervision. Pigs were dosed with the following treatments via endoscopy: free lumefantrine, lumefantrine encapsulated in alginate hydrogels, and lumefantrine encapsulated in LIFT hydrogels (n=3 each). All pigs were dosed with a total of 960 mg lumefantrine. For free lumefantrine, drug powder was weighed and placed across three gelatin capsules. For hydrogel formulations, lumefantrine powder was suspended in polymer solution (0.5% w/v alginate or 0.5% w/v alginate/5% 4-arm PEG-maleimide), mixed, and administered after crosslinker solution (200 mM CaCl2/10 mM DMSA). Blood was sampled via an installed ear catheter at the indicated time points, and lumefantrine area under the curve was calculated by the trapezoidal rule.
Plasma lumefantrine and desbutyl lumefantrine were separated via high pressure liquid chromatography (HPLC) and quantified with an Agilent 6495A electrospray ionization (ESI) triple quadrupole mass spectrometer (Agilent Technologies, Santa Clara, CA). Samples were introduced to the system with a 5 μL injection volume. Chromatography was performed on an Acquity BEH C18 column (2.1×50 mm, dP 1.8 μm, Waters, Milford, MA), heated to 50° C., with a binary mobile phase composed of 0.1% formic acid in water (v/v, A) and 5% tetrahydrofuran in methanol (v/v, B). […] Nozzle voltage was set to 1500 V and capillary voltage was set to 3500 V. Dynamic multiple reaction-monitoring was used to quantify analytes. Lumefantrine was monitored at transitions 528.16 to 510.00 m/z at 28 collision energy (CE), with a qualifier transition from 528.16 to 383.00 m/z (40 CE). Desbutyl lumefantrine was monitored at 472.1 to 454.1 m/z (20 CE) and qualified from 472.1 to 346 m/z (36 CE). Halofantrine was used as an internal standard and quantified with the 500.18 to 142.10 m/z transition (24 CE) and qualified with the 500.18 to 100.10 m/z transition. […]

cellulase = assay: Cellulase activity after acid exposure in vitro; type: biochemical; conditions: short incubations in gastric acid

Compound: O=C(O)C(S)C(S)C(=O)O (centres unmarked) [DMSA, dimercaptosuccinic acid]
lactase activity after exposure to dithiol compound (lactase): attenuated lactase activity

AUC ([1]; pig, other: via endoscopy, plasma, n=3, trapezoidal rule, read-out: area under the curve (AUC) of released drug): 14900 ng·h/mL
Cmax ([1]; pig, other: via endoscopy, plasma, n=3, read-out: maximum observed drug concentration (Cmax)): 901 ± 197 ng/mL
time of peak plasma drug concentration post-administration ([1]; n=3): 5 to 7 h
Compound: CCCCN(CCCC)CC(O)c1cc(Cl)cc2c1-c1ccc(Cl)cc1/C2=C/c1ccc(Cl)cc1 (centres unmarked) [free lumefantrine, Lumefantrine]

Compound: cellulase
activity of free cellulase (cellulase): significantly degraded enzyme activity
